Article PMC7156612, “Olinciguat, an Oral sGC Stimulator, Exhibits Diverse Pharmacology Across Preclinical Models of Cardiovascular, Metabolic, Renal, and Inflammatory Disease” (Frontiers in Pharmacology, 2020)
“Also recorded” adds a separate entry of the source. Marks after values point to notes of the source that are not given here.

Tests used:
[1] = test system: vascular smooth muscle cells (VSMC) from rat aorta; assay: Rat aorta vascular smooth muscle cell proliferation (3H-thymidine incorporation); assay type: cell-based; conditions: Rattus norvegicus, VSMC
Protocol: We explored the concentration response of olinciguat, tadalafil, and olinciguat in the presence of 1 μM tadalafil on rat aorta vascular smooth muscle proliferation, Tadalafil was used because it is a once-daily PDE5 inhibitor that, like the three-times-daily PDE5 inhibitor sildenafil, is approved for treatment of PAH and ED. Vascular smooth muscle cells (VSMC) from rat aorta (Lonza, R-ASM-580) were plated into a 96-well plate at 15,000 cells per well in DMEM:F12 containing 20% FBS and GA-1000 ([Gentamicin, Amphotericin B], Lonza, CC-40863) for 24 h at 37°C. Medium was removed and cells were washed once with 100 μl DMEM:F12 before adding 100 μl of DMEM:F12 and incubating for 24 h to induce quiescence. Cells were then cultured for 24 h in DMEM:F12 supplemented with 5% FBS, in the presence of test articles (vehicle, olinciguat, tadalafil) with 10 µM DETA. In the last 6 h, 0.2 μCi of ^3H-thymidine (American Radiolabeled Chemicals, ART 0178A) was added to each well to measure DNA synthesis by thymidine incorporation. Cells were washed once with HBSS and then trypsinized and transferred into FB filter plates (Millipore, MADVNOB). A rapid-filtration technique using a filtration apparatus (Millipore, MAVM0960R) with vacuum aspiration was used to harvest and rinse labeled cells (6× with 0.2 ml of chilled water). The radioactivity bound to the filters was counted with 80 µl of liquid scintillant (PerkinElmer, UltraGold MV, 6013159) in a scintillation counter (Perkin Elmer Microbeta instrument).
In the vascular smooth muscle cell proliferation experiment, a comparison between the IC50's for olinciguat alone vs oliniciguat in the presence of 1 µM tadalafil was performed by a two-tailed t-test using Log EC50 best fit values and SEs determined from a four-parameter nonlinear curve fit, assuming n=60 degrees of freedom.

[2] = Mass balance/excretion of [14C]-olinciguat in rats; assay type: in vivo, rat; conditions: male Sprague-Dawley rats, single oral dose 3 mg/kg; for equivalents excreted in the feces, percent of administered dose: 3 mg/kg
Protocol: [^14C]-olinciguat, uniformly labeled with [^14C] in the fluorobenzyl ring and having a specific activity of 110 mCi/mmol, was synthesized at American Radiolabeled Chemicals, Inc. (St. Louis, MO). The radiochemical purity was determined to be >99%. Four male Sprague-Dawley rats (approximately 8 weeks old) received a single p.o. dose of 3 mg/kg [^14C]-olinciguat (specific activity 26.6 µCi/mg) in PEG 400:water 60:40 v/v (dosing volume ≤5 ml/kg). Using a single metabolism cage (Nalgene) for each rat, urine and feces were collected for 7 days at 24-h intervals, and cages were rinsed daily. Food was available ad libitum throughout the study, except for the overnight fasting period (16–18 h) before and 4 h after olinciguat administration. Deionized water was available ad libitum. After 7 days, tissues were collected. Urine, feces, liver, kidneys, and cage washes were analyzed to determine material balance.

obese ZSF1 rats = assay: ZSF1 rat model of metabolic syndrome and diabetic nephropathy; assay type: in vivo
Protocol: Lean (n=8, 370–420 g, 15 weeks) and obese (n=32, 500–630 g, 15 weeks) male ZSF1 rats were studied. Rats were treated with enalapril to reflect standard of care drug treatment for patients with diabetic kidney disease. Dose modeling based on allometric scaling relationships estimated that a 10 mg/day enalapril dose in humans (within usual dose range of 10–40 mg based on prescribing information) corresponds to 1 mg/kg/day in rats ([Nair and Jacob, 2016]). To measure hemodynamics in freely moving animals, ZSF1 obese rats were implanted with telemetry transmitters (HD-S10, Data Sciences International) at 9–10 weeks of age, as described above.
The study included a 10-day pretreatment period and a 10-week treatment period. There were five groups of rats in the study. The lean ZSF1 control group (lean control, n=8) and one obese group (obese control, n=8) were fed normal chow and drinking water throughout the 10-day pretreatment period and the 10-week treatment period. Three groups of obese rats were treated with enalapril in drinking water (equivalent to 3 mg/kg/day) throughout the 10-day pretreatment period and the 10-week treatment period. During the treatment period, these enalapril-treated obese rats were administered normal chow (ENP, n=8) or chow containing olinciguat targeting the dose of 10 mg/kg/day (ENP+OLI10, n=8) or 30 mg/kg/day (ENP+OLI30, n=8). Blood and 24-h urine samples were obtained from all animals at baseline (immediately prior to initiation of enalapril treatment), the end of the 10-day pretreatment period (Day 10) and at week 5 and week 10 of the treatment period. Plasma samples were obtained from all olinciguat-treated animals for measurement of olinciguat exposure at week 10. During week 9 of treatment, rats were fasted for 16 h overnight prior to determination of fasting blood glucose using the AlphaTRAK (Abbott) glucose monitoring system. Body weight was measured once every other week. At the end of the study, rats were anesthetized and perfused via the left ventricle with heparinized PBS (1 U/ml heparin) containing IBMX (1 mM). Organs were collected and weighed, and plasma was collected in EDTA tubes. For serum, blood was collected in serum separator tubes, maintained at room temperature for at least 30 min and centrifuged at 6,000 rpm for 10 min, and then stored at −80°C until analysis. Urine and serum samples were analyzed using the Randox Daytona Clinical Chemistry Analyzer (Randox, Kearneysville, WV) for urine protein, serum cholesterol and serum triglycerides. All measurements were performed in accordance with manufacturer's instructions.
For histology, one kidney from each rat was fixed in 10% formalin, then embedded in paraffin. Slides were prepared and stained with hematoxylin and eosin (H&E) and periodic-acid Schiff (PAS) for light microscopic analysis. Kidney sections were evaluated for the presence of glomerular pathology, tubular damage, interstitial inflammation, interstitial fibrosis, and vascular alterations. Severity-based scoring based on these evaluations was performed by a trained pathologist.
For the ZSF1 experiment, data are expressed as mean ± standard error of the mean (SEM).
In the ZSF1 study, change from baseline NT-proBNP, week 10 heart, kidney, and liver weight, urine volume, cholesterol, triglycerides, glucose, and renal histopathology sum score were analyzed by one-way ANOVA corrected for multiple comparisons using Tukey's method. Statistically significant differences vs the obese control and vs the ENP group are indicated in the results. MAP and UPE were analyzed by an ordinary two-way ANOVA with timepoint and treatment group as independent variables, followed by a Tukey's multiple comparisons test. Within each treatment group, significant differences vs baseline are indicated in the results. At week 10, statistically significant differences vs the obese control and vs the ENP control are also indicated in the results.

[3] = obese ZSF1, enalapril 3 mg/kg/day + olinciguat 30 mg/kg/day

- administered dose radioactivity recovered in feces and urine within the first 48 h [2]: 95%
- equivalents excreted in the urine, percent of administered dose ([2]; over 7 days): 5.7%
- equivalents excreted in the feces, percent of administered dose ([2]; over 7 days): > 95%
- equivalents excreted in the feces, percent of administered dose ([2]; over 7 days, listed as [^14C]-olinciguat): 95.3%
- Olinciguat concentration (free) (obese ZSF1 rats; obese ZSF1, olinciguat 30 mg/kg/day, total plasma concentration x 1.0% free): 5.1–6.1 nM^e
Structure (SMILES): NC(=O)[C@](O)(CNc1nc(-c2cc(-c3ccon3)n(Cc3ccccc3F)n2)ncc1F)C(F)(F)F [olinciguat, (R)-3,3,3-trifluoro-2-(((5-fluoro-2-(1-(2-fluorobenzyl)-5-(isoxazol-3-yl)-1H-pyrazol-3-yl)pyrimidin-4-yl)amino)methyl)-2-hydroxypropanamide]
- IC50 ([1]; 5% FBS, 10 µM DETA, 3H-thymidine incorporation, 95% CI 22.4 to 39 nM, read-out: IC50, VSMC proliferation, olinciguat alone): 29.6 nM
- EC50 ([1]; Table 2 summary, olinciguat alone, read-out: Rat vascular smooth muscle proliferation EC50, olinciguat concentration (range = 95% CI)): 22.4 to 39 nM
- cholesterol, percent lower than obese control (obese ZSF1 rats; [3]): 41%
- increase of proteinuria over 10 weeks (obese ZSF1 rats; [3]): 56%
- liver weight (obese ZSF1 rats; [3]): ↓ liver weight
- serum cholesterol at week 10 (obese ZSF1 rats; [3]): ↓ cholesterol
- serum triglycerides at week 10 (obese ZSF1 rats; [3]): ↓ triglycerides
- total kidney weight (obese ZSF1 rats; [3]): did not develop renal hypertrophy; also recorded: ↓ kidney weight
- triglycerides, percent lower than obese control (obese ZSF1 rats; [3]): 52%
- fasting blood glucose (obese ZSF1 rats; obese ZSF1, enalapril 3 mg/kg/day + olinciguat 30 mg/kg/day, week 9): ↓glucose
- UPE at week 10 (obese ZSF1 rats; obese ZSF1, enalapril 3 mg/kg/day + olinciguat 30 mg/kg/day, obese control 1.42 ± 0.12): ↓ proteinuria
- renal pathology sum score (obese ZSF1 rats; obese ZSF1, enalapril 3 mg/kg/day + olinciguat 30 mg/kg/day, p < 0.0001 vs obese control): significantly improved the composite renal histopathological score; also recorded: ↓ renal histopath
- glucose, percent lower (obese ZSF1 rats; obese ZSF1, treatment with olinciguat (discussion)): 43%
- difference in MAP at end of treatment between enalapril+olinciguat 30 mg/kg and enalapril monotherapy groups (obese ZSF1 rats; obese ZSF1, week 10): −8^d mmHg
